Measured values as given in PMC5352749, “Novel insights into biosynthesis and uptake of rhamnolipids and their precursors” (Applied Microbiology and Biotechnology, 2016).

Legend:
[1] = target: T1, RhlB (Pseudomonas aeruginosa, UniProt Q9HYD1); assay: HPLC-UV of mono-rhamnolipids formed by recombinant P. putida fed HAA; format: cell-based; conditions: HAA-containing conditioned LB medium (congener mixture, C10-C10 quantified); 30 °C, 24 h; cellular dTDP-L-rhamnose as donor
T1 construct: full-length untagged gene in pVLT33 (native RBS), expressed alone in P. putida KT2440
T1 sequence (Q9HYD1 entry or part of it): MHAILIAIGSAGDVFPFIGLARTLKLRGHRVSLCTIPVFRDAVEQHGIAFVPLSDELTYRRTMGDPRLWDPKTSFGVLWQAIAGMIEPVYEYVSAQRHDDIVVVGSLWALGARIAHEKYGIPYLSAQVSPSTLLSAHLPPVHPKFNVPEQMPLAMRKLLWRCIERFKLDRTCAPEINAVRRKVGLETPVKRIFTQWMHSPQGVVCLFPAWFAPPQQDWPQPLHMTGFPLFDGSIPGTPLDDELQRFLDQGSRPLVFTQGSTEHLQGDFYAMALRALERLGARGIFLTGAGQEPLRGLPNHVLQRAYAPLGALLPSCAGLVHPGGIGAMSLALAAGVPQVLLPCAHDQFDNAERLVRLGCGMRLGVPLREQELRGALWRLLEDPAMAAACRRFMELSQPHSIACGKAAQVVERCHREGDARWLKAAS

[2] = target: T2, RhlC (Pseudomonas aeruginosa, UniProt Q9I4K5); assay: HPLC-UV of di-rhamnolipids formed by recombinant P. putida fed mono-rhamnolipids; format: cell-based; conditions: mono-rhamnolipid conditioned LB medium (congener mixture, C10-C10 predominant and quantified); 30 °C, 24 h; cellular dTDP-L-rhamnose as donor
T2 construct: full-length untagged gene in pVLT33 (native RBS), expressed alone in P. putida KT2440
T2 sequence (Q9I4K5 entry or part of it): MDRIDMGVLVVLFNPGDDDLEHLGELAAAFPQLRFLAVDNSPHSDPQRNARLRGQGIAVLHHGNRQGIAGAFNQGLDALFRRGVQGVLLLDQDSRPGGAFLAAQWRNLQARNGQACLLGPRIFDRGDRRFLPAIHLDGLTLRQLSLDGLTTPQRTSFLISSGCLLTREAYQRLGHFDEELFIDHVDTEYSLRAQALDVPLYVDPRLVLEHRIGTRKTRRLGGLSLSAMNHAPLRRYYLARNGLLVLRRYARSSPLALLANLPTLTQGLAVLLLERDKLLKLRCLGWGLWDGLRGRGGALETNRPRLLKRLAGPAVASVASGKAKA

SMILES | HPLC-UV of mono-rhamnolipids formed by recombinant P. putida fed HAA [1] | HPLC-UV of di-rhamnolipids formed by recombinant P. putida fed mono-rhamnolipids [2]
CCCCCCCC(O)CC(=O)OC(CCCCCCC)CC(=O)O (centres unmarked) [C10-C10 (HAA)] | HAAs synthesized by P. putida and provided in the form of the conditioned medium serve | –
CCCCCCC[C@H](CC(=O)O)OC(=O)C[C@@H](CCCCCCC)O[C@@H]1O[C@@H](C)[C@H](O)[C@@H](O)[C@H]1O [Rha-C10-C10] | – | extracellularly provided mono-rhamnolipids were converted to di-rhamnolipids by RhlC in recombinant P. putida
